In patent publication US9045491B2, “Thienyl [3,2-D] pyrimidin-4-one compounds, preparation method, pharmaceutical compositions and use thereof” (SHANGHAI INSTITUTE OF MATERIA MEDICA, CHINESE ACADEMY OF …, priority 2011, dated 2015):

Experiments:
Type in all cases: biochemical
human DPP IV = biological target: T1, human DPP IV (Homo sapiens, UniProt P27487); test: DPP IV activity screening (Ala-Pro-AMC fluorescence)
T1 construct: extracellular fragment of protease DPP IV (aa29-766); made in house; host or cells: baculovirus expression system Bac-to-Bac
In short: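 DPP IV activity is taken as the linear rate of fluorescence change at 460 nm. Samples are dissolved in DMSO and screened at a single concentration (e.g. 20 μg/mL). Dose-response data are fit to a variable-slope sigmoidal model with bottom and top fixed at 0 and 100.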

[1] = biological target: dipeptidyl peptidase 7 (DPP 7) (Homo sapiens, UniProt Q9UHL4); test: DPP 7 activity screening; details: N.I. = No Inhibition
In short: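 Sample dissolved in DMSO, final DMSO kept at a level not affecting activity; tested at a single concentration from preliminary screening (e.g. 20 μg/mL). Dose-response data fitted to sigmoidal variable-slope model with bottom and top fixed at 0 and 100.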

human DPP 8 = biological target: T2, human DPP 8 (Homo sapiens, UniProt Q6V1X1); test: DPP 8 activity screening (Ala-Pro-AMC fluorescence); details: N.I. = No Inhibition
T2 construct: made in house; host or cells: insect cells, baculovirus Bac-to-Bac
In short: (§1)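 Insect-cell baculovirus-expressed human enzymes hydrolyse Ala-Pro-AMC; AMC release monitored kinetically as fluorescence rate (ex 355/em 460 nm). Primary screen at a single concentration (e.g. 20 μg/mL); dose–response fitted to variable-slope sigmoid with bottom/top fixed at 0 and 100.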

Human DPP 9 = biological target: T3, Human DPP 9 (Homo sapiens, UniProt Q86TI2); test: DPP 9 activity screening (Ala-Pro-AMC fluorescence); details: N.I. = No Inhibition
T3 construct: made in house; host or cells: insect cells, baculovirus Bac-to-Bac
In short: as §1

FAP = biological target: T4, FAP (Homo sapiens, UniProt Q12884); test: FAP inhibition (Table 1); details: N.I. = No Inhibition
T4 sequence (Q12884 1-760): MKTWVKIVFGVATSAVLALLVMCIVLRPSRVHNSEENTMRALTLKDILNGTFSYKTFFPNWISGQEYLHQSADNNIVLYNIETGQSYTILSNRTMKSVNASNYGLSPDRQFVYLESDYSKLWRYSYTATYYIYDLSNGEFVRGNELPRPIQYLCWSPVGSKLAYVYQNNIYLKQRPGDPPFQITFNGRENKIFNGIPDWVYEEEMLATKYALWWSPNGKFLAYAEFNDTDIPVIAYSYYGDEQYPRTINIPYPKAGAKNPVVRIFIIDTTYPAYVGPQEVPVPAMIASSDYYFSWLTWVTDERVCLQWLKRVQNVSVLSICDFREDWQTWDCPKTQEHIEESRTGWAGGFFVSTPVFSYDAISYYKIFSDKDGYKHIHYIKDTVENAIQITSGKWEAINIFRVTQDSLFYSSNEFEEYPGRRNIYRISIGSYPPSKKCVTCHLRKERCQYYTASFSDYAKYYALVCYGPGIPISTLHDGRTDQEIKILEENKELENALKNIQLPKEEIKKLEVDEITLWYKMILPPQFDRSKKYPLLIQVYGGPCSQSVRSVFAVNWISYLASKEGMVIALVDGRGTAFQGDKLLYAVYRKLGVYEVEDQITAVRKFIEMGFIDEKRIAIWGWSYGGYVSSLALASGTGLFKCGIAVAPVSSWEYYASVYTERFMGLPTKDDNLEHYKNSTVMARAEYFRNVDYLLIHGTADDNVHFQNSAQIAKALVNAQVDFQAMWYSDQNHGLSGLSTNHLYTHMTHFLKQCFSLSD

T2 sequence (Q6V1X1 whole entry): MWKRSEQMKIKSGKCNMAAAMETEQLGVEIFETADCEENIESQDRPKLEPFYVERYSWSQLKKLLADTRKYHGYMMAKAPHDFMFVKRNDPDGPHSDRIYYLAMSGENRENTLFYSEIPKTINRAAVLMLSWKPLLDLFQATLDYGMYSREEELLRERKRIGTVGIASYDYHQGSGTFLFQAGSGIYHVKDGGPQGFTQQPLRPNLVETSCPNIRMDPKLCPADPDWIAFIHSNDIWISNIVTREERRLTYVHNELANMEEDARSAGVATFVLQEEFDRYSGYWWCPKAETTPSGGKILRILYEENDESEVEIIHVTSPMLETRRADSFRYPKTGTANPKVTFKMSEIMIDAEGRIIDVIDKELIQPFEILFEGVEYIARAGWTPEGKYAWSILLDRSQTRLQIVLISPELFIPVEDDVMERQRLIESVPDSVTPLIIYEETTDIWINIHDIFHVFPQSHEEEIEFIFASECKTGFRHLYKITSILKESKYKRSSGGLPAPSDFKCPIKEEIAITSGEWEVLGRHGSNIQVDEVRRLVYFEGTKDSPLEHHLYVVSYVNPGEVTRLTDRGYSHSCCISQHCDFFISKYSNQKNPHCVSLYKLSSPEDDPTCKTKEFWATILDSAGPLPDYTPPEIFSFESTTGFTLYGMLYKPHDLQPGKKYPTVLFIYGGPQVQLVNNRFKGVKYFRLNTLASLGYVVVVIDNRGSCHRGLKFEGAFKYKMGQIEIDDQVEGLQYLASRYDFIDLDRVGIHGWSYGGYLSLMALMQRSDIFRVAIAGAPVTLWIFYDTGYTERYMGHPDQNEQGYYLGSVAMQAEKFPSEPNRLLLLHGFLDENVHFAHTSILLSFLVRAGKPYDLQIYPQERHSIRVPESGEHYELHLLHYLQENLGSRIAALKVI
T3 sequence (Q86TI2 whole entry): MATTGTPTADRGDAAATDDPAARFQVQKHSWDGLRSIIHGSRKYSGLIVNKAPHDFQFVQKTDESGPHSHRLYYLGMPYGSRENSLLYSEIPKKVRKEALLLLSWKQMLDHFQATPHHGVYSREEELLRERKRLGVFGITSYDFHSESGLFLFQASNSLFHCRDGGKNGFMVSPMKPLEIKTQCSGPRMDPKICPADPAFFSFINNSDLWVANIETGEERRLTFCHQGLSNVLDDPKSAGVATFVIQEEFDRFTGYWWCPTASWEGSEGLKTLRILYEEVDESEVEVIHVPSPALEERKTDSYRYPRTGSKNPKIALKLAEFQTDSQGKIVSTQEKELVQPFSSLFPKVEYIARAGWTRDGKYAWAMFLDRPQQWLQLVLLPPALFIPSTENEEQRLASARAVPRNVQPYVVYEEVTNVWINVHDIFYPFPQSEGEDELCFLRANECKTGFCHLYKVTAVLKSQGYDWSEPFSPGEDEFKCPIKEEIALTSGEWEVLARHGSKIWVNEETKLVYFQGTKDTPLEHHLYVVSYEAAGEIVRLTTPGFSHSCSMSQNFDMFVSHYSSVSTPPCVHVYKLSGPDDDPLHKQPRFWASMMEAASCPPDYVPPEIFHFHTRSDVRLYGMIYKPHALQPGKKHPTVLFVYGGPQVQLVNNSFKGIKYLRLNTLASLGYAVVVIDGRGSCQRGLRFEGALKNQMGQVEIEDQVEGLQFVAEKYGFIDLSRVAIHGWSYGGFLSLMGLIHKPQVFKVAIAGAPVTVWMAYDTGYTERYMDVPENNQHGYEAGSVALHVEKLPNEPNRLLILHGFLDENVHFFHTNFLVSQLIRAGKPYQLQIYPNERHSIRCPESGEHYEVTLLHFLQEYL
T1 sequence (P27487 29-766): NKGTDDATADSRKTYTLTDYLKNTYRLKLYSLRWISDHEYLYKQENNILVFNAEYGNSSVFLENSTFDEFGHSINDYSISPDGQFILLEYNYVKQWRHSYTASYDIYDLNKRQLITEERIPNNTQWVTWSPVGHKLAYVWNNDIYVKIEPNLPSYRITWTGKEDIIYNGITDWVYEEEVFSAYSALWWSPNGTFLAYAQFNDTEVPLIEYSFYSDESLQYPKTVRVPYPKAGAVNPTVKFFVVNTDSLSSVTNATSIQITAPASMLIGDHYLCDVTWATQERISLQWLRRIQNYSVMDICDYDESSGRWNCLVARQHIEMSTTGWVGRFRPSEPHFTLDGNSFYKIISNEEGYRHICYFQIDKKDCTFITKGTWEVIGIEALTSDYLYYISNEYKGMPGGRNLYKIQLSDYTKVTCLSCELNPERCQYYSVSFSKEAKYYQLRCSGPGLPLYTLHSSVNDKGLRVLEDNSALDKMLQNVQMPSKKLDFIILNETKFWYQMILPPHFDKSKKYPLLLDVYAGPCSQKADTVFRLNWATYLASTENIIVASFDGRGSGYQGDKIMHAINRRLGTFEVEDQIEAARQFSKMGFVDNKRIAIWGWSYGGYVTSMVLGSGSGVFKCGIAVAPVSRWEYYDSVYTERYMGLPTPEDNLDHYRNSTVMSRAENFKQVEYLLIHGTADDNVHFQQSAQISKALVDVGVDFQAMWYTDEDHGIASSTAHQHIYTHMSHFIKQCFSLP

Row | SMILES | IC50 (human DPP IV) [µM] | DPP 7 IC50 [1] | IC50 (human DPP 8) [µM] | IC50 (Human DPP 9) [µM] | IC50 (FAP) [µM] | DPP 9 IC50 (Human DPP 9) | IC50 [1] [µM] | DPP 8 IC50 (human DPP 8) | FAP IC50 (FAP)
1 | N#Cc1ccccc1Cn1c(N2CCC[C@@H](N)C2)nc2cc(COCc3ccccc3)sc2c1=O [Compound 94, (R)-2-((2-(3-aminopiperidin-1-yl)-6-((benzyloxy)methyl)-4-oxothieno-[3,2-d]pyrimidin-3(4H)-yl)methyl)-benzonitrile] | 0.0104 | N.I. | 34.2 | 55 | 96.8 | – | – | – | –
2 | N#Cc1ccccc1Cn1c(N2CCC[C@@H](N)C2)nc2cc(CN3CCOCC3)sc2c1=O [Compound 95, (R)-2-((2-(3-aminopiperidin-1-yl)-6-(morpholinomethyl)-4-oxothieno-[3,2-d]pyrimidin-3(4H)-yl)methyl)benzonitrile] | 0.0592 | N.I. | – | – | – | N.I. | – | N.I. | N.I.
3 | CC(=O)OCc1cc2nc(N3CCC[C@@H](N)C3)n(Cc3ccccc3C#N)c(=O)c2s1 [Compound 96, (R)-(2-(3-aminopiperidin-1-yl)-3-(2-cyanobenzyl)-4-oxo-3,4-dihydrothieno-[3,2-d]pyrimidin-6-yl)methyl acetate] | 0.0116 | N.I. | – | – | – | N.I. | – | N.I. | N.I.
4 | N#Cc1ccccc1Cn1c(N2CCC[C@@H](N)C2)nc2cc(C(N)=O)sc2c1=O [Compound 97, (R)-2-(3-aminopiperidin-1-yl)-3-(2-cyanobenzyl)-4-oxo-3,4-dihydrothieno-[3,2-d]pyrimidine-6-carboxamide] | 0.0204 | N.I. | – | – | – | N.I. | – | N.I. | N.I.

More lines, now with the values ahead:

Row | IC50 (human DPP IV) [µM] | DPP 7 IC50 [1] | IC50 (human DPP 8) [µM] | IC50 (Human DPP 9) [µM] | IC50 (FAP) [µM] | DPP 9 IC50 (Human DPP 9) | IC50 [1] [µM] | DPP 8 IC50 (human DPP 8) | FAP IC50 (FAP) | SMILES
5 | 0.0202 | N.I. | 59.4 | 348 | 44 | – | – | – | – | N#Cc1ccccc1Cn1c(N2CCC[C@@H](N)C2)nc2c(C(=O)NC3CCOCC3)csc2c1=O [Compound 81, (R)-2-(3-aminopiperidin-1-yl)-3-(2-cyanobenzyl)-4-oxo-N-(tetrahydro-2H-pyran-4-yl)-3,4-dihydrothieno[3,2-d]-pyrimidine-7-carboxamide]
6 | 0.0659 | N.I. | 18.1 | – | 16.5 | N.I. | – | – | – | N#Cc1ccccc1Cn1c(N2CCC[C@@H](N)C2)nc2c(C(=O)NCC3COC3)csc2c1=O [Compound 82, (R)-2-(3-aminopiperidin-1-yl)-3-(2-cyanobenzyl)-N-(oxetan-3-ylmethyl)-4-oxo-3,4-dihydrothieno[3,2-d]pyrimidine-7-carboxamide]
7 | 0.0161 | – | 317 | – | 160 | N.I. | 38.2 | – | – | N#Cc1ccccc1Cn1c(N2CCC[C@@H](N)C2)nc2c(C#N)csc2c1=O [Compound 83, (R)-2-(3-aminopiperidin-1-yl)-3-(2-cyanobenzyl)-4-oxo-3,4-dihydrothieno-[3,2-d]pyrimidine-7-carbonitrile]
8 | 0.0242 | N.I. | 62 | – | 91.3 | N.I. | – | – | – | N#Cc1ccccc1Cn1c(N2CCC[C@@H](N)C2)nc2c(N)csc2c1=O [Compound 84, (R)-2-((7-amino-2-(3-aminopiperidin-1-yl)-4-oxothieno[3,2-d]pyrimidin-3(4H)-yl)methyl)benzonitriIe]
9 | 0.0371 | N.I. | 339 | – | 255 | N.I. | – | – | – | CS(=O)(=O)Nc1csc2c(=O)n(Cc3ccccc3C#N)c(N3CCC[C@@H](N)C3)nc12 [Compound 85, (R)-N-(2-(3-aminopiperidin-1-yl)-3-(2-cyanobenzyl)-4-oxo-3,4-dihydrothieno-[3,2-d]pyrimidin-7-yl) methanesulfonamide]
10 | 0.0208 | N.I. | 318 | – | 121 | N.I. | – | – | – | CC(=O)Nc1csc2c(=O)n(Cc3ccccc3C#N)c(N3CCC[C@@H](N)C3)nc12 [Compound 86, (R)-N-(2-(3-aminopiperidin-1-yl)-3-(2-cyanobenzyl)-4-oxo-3,4-dihydrothieno-[3,2-d]pyrimidin-7-yl)acetamide]
